In patent publication US7772245B2, “Inhibitors of histone deacetylase” (Miikana Therapeutics, Inc., priority 2005, dated 2010):

Columns and labels:
[1] = tested on: HDAC; assay: In vitro fluorescent histone deacetylase assay (Biomol HDAC fluorescent activity kit, HeLa cell nuclear extract); type: biochemical; conditions: 100 μM compound; HeLa cell nuclear extract as source of HDAC activity; 50 μM substrate, 10 min at room temperature
Procedure, shortened: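 HeLa nuclear extract as HDAC source with fluorogenic substrate at 50 μM final, reacting 10 min at room temperature before stop. Compounds serially diluted in assay buffer, final DMSO ≤2%; fluorescence read at ex 355 nm / em 460 nm.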

[2] = tested on: HCT116 cells; assay: Whole cell cytotoxicity assay: Sulforhodamine B; type: cell-based; conditions: Homo sapiens, HCT-116; 100 μM compound; 48 hours incubation with drug; Sulforhodamine B staining; read-out: % Inhibition of HCT116 cell growth @ 100 μM

SMILES	% Inhibition of HDAC @ 100 μM [1] [%]	inhibition at 100 µM [2] [%]
C[S+]([O-])c1cccc(-c2ccc3[nH]c4c(c3c2)CN(c2ncc(C(=O)NO)cn2)CC4)c1 (stereo not drawn) [Example 79, N-hydroxy-2-{8-[3-(methylsulfinyl)phenyl]-1,3,4,5-tetrahydro-2H-pyrido[4,3-b]indol-2-yl}pyrimidine-5-carboxamide]	100	95.7
CC(=O)NCc1cccc(-c2ccc3[nH]c4c(c3c2)CN(c2ncc(C(=O)NO)cn2)CC4)c1 [Example 82, N-hydroxy-2-{8-[3-(N-acetamidomethyl)phenyl]-1,3,4,5-tetrahydro-2H-pyrido[4,3-b]indol-2-yl}pyrimidine-5-carboxamide]	99.9	97
CS(=O)(=O)NCc1cccc(-c2ccc3[nH]c4c(c3c2)CN(c2ncc(C(=O)NO)cn2)CC4)c1 [Example 83, N-hydroxy-2-{8-[3-(N-methylsulfonamidomethyl)phenyl]-1,3,4,5-tetrahydro-2H-pyrido[4,3-b]indol-2-yl}pyrimidine-5-carboxamide]	99.9	94.7
O=C(NO)c1cnc(N2CCc3[nH]c4ccc(-c5cccc(-c6nnn[nH]6)c5)cc4c3C2)nc1 [Example 84, N-hydroxy-2-{8-[3-(1H-tetrazol-5-yl)phenyl]-1,3,4,5-tetrahydro-2H-pyrido[4,3-b]indol-2-yl}pyrimidine-5-carboxamide]	99.9	93.2
Nc1cccc(-c2ccc3[nH]c4c(c3c2)CN(c2ncc(C(=O)NO)cn2)CC4)c1 [Example 86, N-hydroxy-2-{8-[3-aminophenyl]-1,3,4,5-tetrahydro-2H-pyrido[4,3-b]indol-2-yl}pyrimidine-5-carboxamide]	100	99.1
CC(=O)Nc1cccc(-c2ccc3[nH]c4c(c3c2)CN(c2ncc(C(=O)NO)cn2)CC4)c1 [Example 87, N-hydroxy-2-{8-[3-(N-acetamido)phenyl]-1,3,4,5-tetrahydro-2H-pyrido[4,3-b]indol-2-yl}pyrimidine-5-carboxamide]	100	83.1
O=C(NO)c1cnc(N2CCc3[nH]c4ccc(-c5cccc(CN6CCOCC6)c5)cc4c3C2)nc1 [Example 90, N-hydroxy-2-{8-[3-(morpholin-4-ylmethyl)phenyl]-1,3,4,5-tetrahydro-2H-pyrido[4,3-b]indol-2-yl}pyrimidine-5-carboxamide]	99.8	93.1
O=C(NO)c1cnc(N2CCc3[nH]c4ccc(-c5cccc(CN6CCCCC6)c5)cc4c3C2)nc1 [Example 91, N-hydroxy-2-{8-[3-(piperidin-1-ylmethyl)phenyl]-1,3,4,5-tetrahydro-2H-pyrido[4,3-b]indol-2-yl}pyrimidine-5-carboxamide]	100	98.6
O=C(NO)c1cnc(N2CCc3[nH]c4ccc(-c5cccc(CN6CCC(CO)CC6)c5)cc4c3C2)nc1 [Example 93, N-hydroxy-2-{8-[3-((4-hydroxymethylpiperidin-1-yl)methyl)phenyl]-1,3,4,5-tetrahydro-2H-pyrido[4,3-b]indol-2-yl}pyrimidine-5-carboxamide]	100	98
O=C(NO)c1cnc(N2CCc3[nH]c4ccc(-c5cccc(CN6CCSCC6)c5)cc4c3C2)nc1 [Example 94, N-hydroxy-2-{8-[3-(thiomorpholin-4-ylmethyl)phenyl]-1,3,4,5-tetrahydro-2H-pyrido[4,3-b]indol-2-yl}pyrimidine-5-carboxamide]	99.7	98.5
O=C(NO)c1cnc(N2CCc3[nH]c4ccc(-c5cccc(CN(CCO)CCO)c5)cc4c3C2)nc1 [Example 95, N-hydroxy-2-{8-[3-(N,N-di(2-hydroxyethyl)aminomethyl)phenyl]-1,3,4,5-tetrahydro-2H-pyrido[4,3-b]indol-2-yl}pyrimidine-5-carboxamide]	100	98.2
CN1CCN(Cc2cccc(-c3ccc4[nH]c5c(c4c3)CN(c3ncc(C(=O)NO)cn3)CC5)c2)CC1 [Example 96, N-hydroxy-2-{8-[3-((4-methylpiperazin-1-yl)methyl)phenyl]-1,3,4,5-tetrahydro-2H-pyrido[4,3-b]indol-2-yl}pyrimidine-5-carboxamide]	100	98.7
O=C(NO)c1cnc(N2CCc3[nH]c4ccc(-c5cccc(CN6CCCC6)c5)cc4c3C2)nc1 [Example 97, N-hydroxy-2-{8-[3-(pyrrolidin-1-ylmethyl)phenyl]-1,3,4,5-tetrahydro-2H-pyrido[4,3-b]indol-2-yl}pyrimidine-5-carboxamide]	100	98.1
O=C(NO)c1cnc(N2CCc3[nH]c4ccc(-c5cccc(CN6CCNCC6)c5)cc4c3C2)nc1 [Example 99, N-hydroxy-2-{8-[3-(piperazin-1-ylmethyl)phenyl]-1,3,4,5-tetrahydro-2H-pyrido[4,3-b]indol-2-yl}pyrimidine-5-carboxamide]	99.9	93.8
CS(=O)(=O)N1CCN(Cc2cccc(-c3ccc4[nH]c5c(c4c3)CN(c3ncc(C(=O)NO)cn3)CC5)c2)CC1 [Example 100, N-hydroxy-2-{8-[3-((4-(methylsulfonyl)piperazin-1-yl)methyl)phenyl]-1,3,4,5-tetrahydro-2H-pyrido[4,3-b]indol-2-yl}pyrimidine-5-carboxamide]	100	96.6
CC(=O)N1CCN(Cc2cccc(-c3ccc4[nH]c5c(c4c3)CN(c3ncc(C(=O)NO)cn3)CC5)c2)CC1 [Example 101, N-hydroxy-2-{8-[3-((4-acetylpiperazin-1-yl)methyl)phenyl]-1,3,4,5-tetrahydro-2H-pyrido[4,3-b]indol-2-yl}pyrimidine-5-carboxamide]	100	97.9
O=C(NO)c1cnc(N2CCc3[nH]c4ccc(-c5ccc(CN6CCOCC6)cc5)cc4c3C2)nc1 [Example 104, N-hydroxy-2-{8-[4-(morpholin-4-ylmethyl)phenyl]-1,3,4,5-tetrahydro-2H-pyrido[4,3-b]indol-2-yl}pyrimidine-5-carboxamide]	100	92
CN1CCN(Cc2ccc(-c3ccc4[nH]c5c(c4c3)CN(c3ncc(C(=O)NO)cn3)CC5)cc2)CC1 [Example 106, N-hydroxy-2-{8-[4-((4-methylpiperazin-1-yl)methyl)phenyl]-1,3,4,5-tetrahydro-2H-pyrido[4,3-b]indol-2-yl}pyrimidine-5-carboxamide]	99.9	98.3
O=C(NO)c1cnc(N2CCc3[nH]c4ccc(-c5ccc(CO)cc5)cc4c3C2)nc1 [Example 107, N-hydroxy-2-{8-[4-(hydroxymethyl)phenyl]-1,3,4,5-tetrahydro-2H-pyrido[4,3-b]indol-2-yl}pyrimidine-5-carboxamide]	99.9	92.7
CN1CCN(Cc2ccc(-c3ccc4[nH]c5c(c4c3)CN(c3ncc(C(=O)NO)cn3)CC5)o2)CC1 [Example 108, N-hydroxy-2-{8-[5-((4-methylpiperazin-1-yl)methyl)-2-furyl]-1,3,4,5-tetrahydro-2H-pyrido[4,3-b]indol-2-yl}pyrimidine-5-carboxamide]	100	99.1
O=C(NO)c1cnc(N2CCc3[nH]c4ccc(-c5ccc(CN6CCOCC6)o5)cc4c3C2)nc1 [Example 109, N-hydroxy-2-{8-[5-(morpholin-4-yl)methyl-2-furyl]-1,3,4,5-tetrahydro-2H-pyrido[4,3-b]indol-2-yl}pyrimidine-5-carboxamide]	100	91.7
CN1CCN(Cc2ccc(-c3ccc4[nH]c5c(c4c3)CN(c3ncc(C(=O)NO)cn3)CC5)s2)CC1 [Example 110, N-hydroxy-2-{8-[5-((4-methylpiperazin-1-yl)methyl)-thien-2-yl]-1,3,4,5-tetrahydro-2H-pyrido[4,3-b]indol-2-yl}pyrimidine-5-carboxamide]	100	98.7
O=C(NO)c1cnc(N2CCc3[nH]c4cc(Br)ccc4c3C2)nc1 [Example 112, N-hydroxy-2-(7-bromo-1,3,4,5-tetrahydro-2H-pyrido[4,3-b]indol-2-yl)pyrimidine-5-carboxamide]	99.9	98.7
COc1ccc2[nH]c3c(c2c1)CCN(c1ncc(C(=O)NO)cn1)CC3 [Example 113, N-hydroxy-2-(9-methoxy-1,4,5,6-tetrahydroazepino[4,5-b]indol-3(2H)-1-yl)pyrimidine-5-carboxamide]	100	98.7
O=C(NO)c1cnc(N2CCc3[nH]c4ccc(-c5cccc(CN6CCOCC6)c5)cc4c3CC2)nc1 [Example 116, N-hydroxy-2-(9-[3-(morpholin-4-ylmethy)phenyl]-1,4,5,6-tetrahydroazepino[4,5-b]indol-3(2H)-1-yl)pyrimidine-5-carboxamide]	100	98.6
CN1CCN(Cc2cccc(-c3ccc4[nH]c5c(c4c3)CCN(c3ncc(C(=O)NO)cn3)CC5)c2)CC1 [Example 117, N-hydroxy-2-(9-[3-((4-methylpiperazin-1-yl)methy)phenyl]-1,4,5,6-tetrahydroazepino[4,5-b]indol-3(2H)-1-yl)pyrimidine-5-carboxamide]	99.8	98.6
O=C(NO)c1cnc(N2CCc3c(sc4ccccc34)C2)nc1 [Example 118, 2-(3,4-dihydro[1]benzothieno[2,3-c]pyridin-2(1H)-yl)-N-hydroxypyrimidine-5-carboxamide]	99.7	98.9
